Experimental data: PubChem BioAssay AID248 (DTP/NCI, 2004)
Values joined by “and” are separate entries in the source; they are usually repeats but may differ in a detail not shown here. Equal entries are not always repeated. Inconclusive results and toxic doses are left out. Rule as the data show it: active = T/C of 150% or more; inactive = T/C below 125%.

System: L1210 leukemia ip in BDF1 mice, survival T/C
Assay: NCI In Vivo Anticancer Drug Screen. Data for tumor model L1210 Leukemia (intraperitoneal) in B6D2F1 (BDF1) mice
Settings: endpoint: mean survival time, higher = longer survival
Procedure, shortened: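 Transplantable tumor model; survival measured in treated vs vehicle control mice. Value = treated/control.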

Measured: T/C

COC1=C(N)C(=O)c2nc(-c3nc(C(=O)O)c(C)c(-c4ccc(OC)c(OC)c4O)c3N)ccc2C1=O
inactive: dose: 0.02 mg/kg/injection, schedule: Q01DX009 (ip), vehicle: other 86 % of control | dose: 0.05 mg/kg/injection, schedule: Q01DX009 (ip), vehicle: other 94 % of control | dose: 0.05 mg/kg/injection, schedule: Q04DX002 (ip), vehicle: saline 106 % of control | dose: 0.1 mg/kg/injection, schedule: Q01DX Z (ip), vehicle: alkali diluted with CMC 103 % of control and 109 % of control | dose: 0.1 mg/kg/injection, schedule: Q01DX Z (ip), vehicle: water 105 % of control | dose: 0.1 mg/kg/injection, schedule: Q04DX002 (ip), vehicle: saline 120 % of control | dose: 0.12 mg/kg/injection, schedule: Q01DX001 (iv), vehicle: other 102 % of control | dose: 0.12 mg/kg/injection, schedule: Q01DX009 (ip), vehicle: saline 106 % of control | dose: 0.18 mg/kg/injection, schedule: Q01DX001 (ip), vehicle: other 124 % of control | dose: 0.2 mg/kg/injection, schedule: Q01DX009 (ip), vehicle: other 102 % of control | dose: 0.2 mg/kg/injection, schedule: Q01DX Z (ip), vehicle: alkali diluted with CMC 96 % of control and 106 % of control | dose: 0.2 mg/kg/injection, schedule: Q01DX Z (ip), vehicle: water 105 % of control | dose: 0.2 mg/kg/injection, schedule: Q04DX002 (ip), vehicle: saline 113 % of control | dose: 0.25 mg/kg/injection, schedule: Q01DX001 (iv), vehicle: other 114 % of control | dose: 0.25 mg/kg/injection, schedule: Q01DX009 (ip), vehicle: saline 106 % of control and 116 % of control | dose: 0.25 mg/kg/injection, schedule: Q01DX015 (ip), vehicle: water 118 % of control | dose: 0.3 mg/kg/injection, schedule: Q01DX Z (ip), vehicle: water 102 % of control | dose: 0.39 mg/kg/injection, schedule: Q04DX002 (ip), vehicle: saline 110 % of control | dose: 0.4 mg/kg/injection, schedule: Q01DX Z (ip), vehicle: alkali diluted with CMC 104 % of control and 106 % of control | dose: 0.45 mg/kg/injection, schedule: Q01DX Z (ip), vehicle: saline 107 % of control | dose: 0.5 mg/kg/injection, schedule: Q01DX001 (ip), vehicle: carboxymethylcellulose (CMC) 95 % of control | dose: 0.5 mg/kg/injection, schedule: Q01DX001 (iv), vehicle: other 105 % of control | dose: 0.5 mg/kg/injection, schedule: Q01DX009 (ip), vehicle: saline 108 % of control and 86 % of control | dose: 0.5 mg/kg/injection, schedule: Q01DX015 (ip), vehicle: water 101 % of control | dose: 0.66 mg/kg/injection, schedule: Q01DX Z (ip), vehicle: saline 110 % of control | dose: 0.75 mg/kg/injection, schedule: Q01DX001 (ip), vehicle: other 118 % of control | dose: 0.78 mg/kg/injection, schedule: Q04DX002 (ip), vehicle: saline 106 % of control | dose: 0.8 mg/kg/injection, schedule: Q01DX Z (ip), vehicle: alkali diluted with CMC 96 % of control and 91 % of control | dose: 1.0 mg/kg/injection, schedule: Q01DX001 (iv), vehicle: other 91 % of control | dose: 1.5 mg/kg/injection, schedule: Q01DX001 (ip), vehicle: other 121 % of control | dose: 1.5 mg/kg/injection, schedule: Q01DX001 (ip), vehicle: saline 120 % of control | dose: 2.0 mg/kg/injection, schedule: Q01DX001 (ip), vehicle: carboxymethylcellulose (CMC) 88 % of control | dose: 2.5 mg/kg/injection, schedule: Q01DX001 (oral), vehicle: water 105 % of control | dose: 5.0 mg/kg/injection, schedule: Q01DX001 (oral), vehicle: water 98 % of control | dose: 10.0 mg/kg/injection, schedule: Q01DX001 (oral), vehicle: water 88 % of control

Nc1nc(N)c2[nH]cnc2n1
inactive: dose: 12.5 mg/kg/injection, schedule: Q01DX Z (ip), vehicle: carboxymethylcellulose (CMC) 91 % of control | dose: 17.49 mg/kg/injection, schedule: Q01DX Z (ip), vehicle: carboxymethylcellulose (CMC) 86 % of control | dose: 25.0 mg/kg/injection, schedule: Q01DX009 (ip), vehicle: Klucel (hydroxypropylcellulose) (HPC) 111 % of control | dose: 25.0 mg/kg/injection, schedule: Q01DX Z (ip), vehicle: carboxymethylcellulose (CMC) 93 % of control | dose: 34.98 mg/kg/injection, schedule: Q01DX Z (ip), vehicle: carboxymethylcellulose (CMC) 92 % of control | dose: 44.0 mg/kg/injection, schedule: Q02DX010 (ip), vehicle: other 100 % of control | dose: 50.0 mg/kg/injection, schedule: Q01DX009 (ip), vehicle: Klucel (hydroxypropylcellulose) (HPC) 110 % of control | dose: 66.0 mg/kg/injection, schedule: Q02DX010 (ip), vehicle: other 105 % of control | dose: 69.95 mg/kg/injection, schedule: Q01DX Z (ip), vehicle: carboxymethylcellulose (CMC) 95 % of control | dose: 100.0 mg/kg/injection, schedule: Q01DX001 (ip), vehicle: carboxymethylcellulose (CMC) 97 % of control | dose: 100.0 mg/kg/injection, schedule: Q01DX Z (ip), vehicle: carboxymethylcellulose (CMC) 91 % of control | dose: 100.0 mg/kg/injection, schedule: Q02DX010 (ip), vehicle: other 116 % of control | dose: 139.9 mg/kg/injection, schedule: Q01DX Z (ip), vehicle: carboxymethylcellulose (CMC) 106 % of control | dose: 150.0 mg/kg/injection, schedule: Q02DX010 (ip), vehicle: other 117 % of control | dose: 200.0 mg/kg/injection, schedule: Q01DX001 (ip), vehicle: carboxymethylcellulose (CMC) 90 % of control | dose: 225.0 mg/kg/injection, schedule: Q02DX010 (ip), vehicle: other 60 % of control | dose: 400.0 mg/kg/injection, schedule: Q01DX001 (ip), vehicle: carboxymethylcellulose (CMC) 97 % of control

CCOC(=O)C(CCc1c[nH]c(=O)[nH]c1=O)(NC(C)=O)C(=O)OCC
inactive: dose: 50.0 mg/kg/injection, schedule: Q04DX002 (ip), vehicle: saline 102 % of control | dose: 100.0 mg/kg/injection, schedule: Q04DX002 (ip), vehicle: saline 122 % of control | dose: 200.0 mg/kg/injection, schedule: Q04DX002 (ip), vehicle: saline 102 % of control | dose: 400.0 mg/kg/injection, schedule: Q04DX002 (ip), vehicle: saline 104 % of control

CC(C)(C)C(=O)[CH-]C(=O)C(C)(C)C.CC(C)(C)C(=O)[CH-]C(=O)C(C)(C)C.CC(C)(C)C(=O)[CH-]C(=O)C(C)(C)C.[Er+3]
inactive: dose: 50.0 mg/kg/injection, schedule: Q04DX002 (ip), vehicle: saline with Tween-80 90 % of control | dose: 100.0 mg/kg/injection, schedule: Q04DX002 (ip), vehicle: saline with Tween-80 90 % of control | dose: 200.0 mg/kg/injection, schedule: Q04DX002 (ip), vehicle: saline with Tween-80 90 % of control | dose: 400.0 mg/kg/injection, schedule: Q04DX002 (ip), vehicle: saline with Tween-80 90 % of control

O=C1NC(c2ccccc2)C(=O)N1CCN(CCCl)CCCl (configuration not stated)
inactive: dose: 3.12 mg/kg/injection, schedule: Q01DX009 (ip), vehicle: saline 102 % of control | dose: 3.12 mg/kg/injection, schedule: Q04DX003 (ip), vehicle: saline 98 % of control | dose: 6.25 mg/kg/injection, schedule: Q01DX009 (ip), vehicle: saline 97 % of control | dose: 6.25 mg/kg/injection, schedule: Q04DX003 (ip), vehicle: saline 106 % of control | dose: 12.5 mg/kg/injection, schedule: Q01DX009 (ip), vehicle: saline 100 % of control | dose: 12.5 mg/kg/injection, schedule: Q04DX003 (ip), vehicle: saline 103 % of control | dose: 25.0 mg/kg/injection, schedule: Q04DX003 (ip), vehicle: saline 115 % of control

C=C(Br)CN(CCCC)C(C)=O
inactive: dose: 100.0 mg/kg/injection, schedule: Q01DX009 (ip), vehicle: Klucel (hydroxypropylcellulose) (HPC) 100 % of control | dose: 100.0 mg/kg/injection, schedule: Q04DX003 (ip), vehicle: Klucel (hydroxypropylcellulose) (HPC) 103 % of control | dose: 200.0 mg/kg/injection, schedule: Q01DX009 (ip), vehicle: Klucel (hydroxypropylcellulose) (HPC) 108 % of control | dose: 200.0 mg/kg/injection, schedule: Q04DX003 (ip), vehicle: Klucel (hydroxypropylcellulose) (HPC) 100 % of control and 92 % of control

c1ccc(Nc2nnnn2C2CCCCC2)cc1
inactive: dose: 100.0 mg/kg/injection, schedule: Q01DX001 (ip), vehicle: saline with Tween-80 104 % of control | dose: 200.0 mg/kg/injection, schedule: Q01DX001 (ip), vehicle: saline with Tween-80 95 % of control | dose: 400.0 mg/kg/injection, schedule: Q01DX001 (ip), vehicle: saline with Tween-80 93 % of control

COC1=Nc2ccccc2/C=C\c2ccccc21
inactive: dose: 100.0 mg/kg/injection, schedule: Q04DX002 (ip), vehicle: carboxymethylcellulose (CMC) 96 % of control | dose: 200.0 mg/kg/injection, schedule: Q04DX002 (ip), vehicle: carboxymethylcellulose (CMC) 89 % of control | dose: 400.0 mg/kg/injection, schedule: Q04DX002 (ip), vehicle: carboxymethylcellulose (CMC) 89 % of control
